Results on 96 compounds are retold here after ChEMBL document CHEMBL3507680, “University of Dundee, Gates Library screen for HepG2 cell viability”.

This data set can be described thus: Human HepG2 cell viability assay in 384 well format. The format is toxicity, cell-based. More on the design: dose 125 nL, time 70.5 hour; cytotoxicity at 70.5 h: concentration not given beside the values. As to conditions: HepG2 cells, read-out: Inhibition.
For `CCc1ccc(C2CC(=O)Nc3c2c(=O)n(C)c2ncnn32)cc1` (stereo unspecified), the cytotoxicity at 70.5 h was -2.98%.
In the case of `COC1COC2(CCN(C(=O)c3ncccn3)CC2)C1` (stereo unspecified) it was 14.8%; in that of `O=C(NCc1ccccc1)N1Cc2nc(COCC3CC3)oc2C1`, 4.6%; in that of `O=C([C@@H]1CC[C@@H]2[C@@H](CCN2c2ncccn2)O1)N1CCCO1`, 11.8%.
In the case of `CC(=O)N1CC2(CCN(C(=O)C3CC3)CC2)c2cc(C)ccc21` it was 6.48%; in that of `CN(Cc1cccnc1)C1CC2(CCN(C(=O)c3ccnnc3)CC2)C1`, -13.1%; in that of `Cc1ccoc1C(=O)N1CC[C@@]2(C[C@H](NS(C)(=O)=O)CCO2)C1`, -18.1%.
On to `Cc1ccc(N2CCC3(CCN(Cc4ccccn4)CC3)CC2)nn1`, for which the cytotoxicity at 70.5 h is -11.7%.
For `CCC(=O)N1CCC2(CC1)CN(C(C)=O)c1ccc(C)cc12`, the cytotoxicity at 70.5 h is -9.39%.
In the case of `O=S(=O)(c1cccs1)N1CCN2C[C@H](OCC3CC3)C[C@H]2C1` it was -3.74%; in that of `CC(C)C(=O)N1CCN(S(=O)(=O)C2CC2)CC2(CC(=O)N(C)C2)C1` (stereo unspecified), -6.71%.
For `Cc1ccc(N2CCC3(CCN(Cc4nccs4)CC3)CC2)nn1`, the cytotoxicity at 70.5 h is -7.07%.
In the case of `CC(C)C(=O)N1CCN(S(C)(=O)=O)CC2(CC(=O)N(C)C2)C1` (stereo unspecified) it was -7.11%; in that of `CCS(=O)(=O)N1CCN(C(=O)NC(C)C)CC2(CC(=O)N(C)C2)C1` (stereo unspecified), -7.37%; in that of `O=C(c1ccco1)N1CC[C@H]2[C@H]1CCN2S(=O)(=O)C1CC1`, -8.4%.
In the case of `Cc1ccc(CN2CCC3(CCN(Cc4ccncc4)CC3)CC2)cc1` it was -3.02%; in that of `CCN1CCC2(COCc3c(C)nc(N4CCOCC4)nc32)C1` (stereo unspecified), 11.1%.
In the case of `CCS(=O)(=O)N1Cc2nccn2CC(CN2CCCC2)C1` (stereo unspecified) it was 4.02%.
For `O=C1[C@H]2CN(C3CCOCC3)C[C@H]2CN1Cc1cccnc1`, the cytotoxicity at 70.5 h turned out to be 3.06%.
In the case of `COc1nn(C)c2c1CCCN(S(=O)(=O)c1cccc(C)c1)C2` it was -4.74%; in that of `COc1nn(C)c2c1CCCN(S(=O)(=O)c1ccccc1F)C2`, -1.52%.
`c1c(CN2CCCCC2)nc2n1CCN(CC1CC1)C2`: the cytotoxicity at 70.5 h came out at 0.696%.
In the case of `CC(C)CN1CCNC(=O)C12CCN(C(=O)c1ccccn1)CC2`, the cytotoxicity at 70.5 h stood at 9.35%.
In the case of `CN(C)C(=O)N1CCN(C(=O)c2ccc(Cl)cc2)CC2(CNC(=O)C2)C1` (stereo unspecified) it was 11%; in that of `CNC(=O)N1CCc2nc(C(=O)Nc3cccnc3)sc2CC1`, -3.13%.
For `CC(C)C(=O)N1CCC12CCCN(C(=O)c1ccnnc1)C2` (stereo unspecified), the cytotoxicity at 70.5 h is -6.79%.
Regarding `O=C(c1c2c(NCC3CC3)ncnc2n2ccccc12)N1CCCC1`, the cytotoxicity at 70.5 h is 0.851%.
As to `O=C(c1c2c(N3CCOCC3)ncnc2n2ccccc12)N1CCCC1`, the cytotoxicity at 70.5 h is -3.03%.
In the case of `CS(=O)(=O)N1CCCCC12CCN(c1nncs1)CC2` it was -1.19%; in that of `CN(C)C(=O)N1CCN(C(=O)c2ccccc2)CC2(CNC(=O)C2)C1` (stereo unspecified), -1.67%; in that of `O=C(c1c2c(NCC3CC3)ncnc2n2ccccc12)N1CCOCC1`, -1.89%.
For `CCn1c(=O)c2sccc2n(CC(=O)Nc2cccc(Cl)c2)c1=O`, the cytotoxicity at 70.5 h stood at 8.59%.
In the case of `O=c1[nH]nc2c(N3CCC(NC4CCOCC4)CC3)nccn12` it was -11.2%; in that of `CC1CCN(c2nccn3c(=O)[nH]nc23)CC1`, -3.79%.
In the case of `CC1CCCN(c2nccn3c(=O)[nH]nc23)C1` (stereo unspecified) it was -7.92%.
In the case of `CCOCCCNC(=O)CN(c1cccc(F)c1)S(C)(=O)=O` it was -21.2%; in that of `COc1cccc(NC(=O)CC2Cn3ncnc3NC2=O)c1` (stereo unspecified), -10.6%.
On to `CCSC1=Nc2c(cnn2-c2ccc(Cl)cc2)C2=NCCCN12`, for which the cytotoxicity at 70.5 h was -7.4%.
As to `Cn1c(=O)c2c(n3ncnc13)NC(=O)CC2c1cccc(Br)c1` (stereo unspecified), the cytotoxicity at 70.5 h is -9.38%.
In the case of `O=C1CC(c2ccc3c(c2)OCO3)c2cn[nH]c2N1` (stereo unspecified) it was -11.7%.
On to `CCCOc1ccc(C2SCC(=O)Nc3c2c(=O)[nH]n3C(C)C)cc1` (stereo unspecified), for which the cytotoxicity at 70.5 h was -18.7%.
In the case of `O=C(O)CCNC(=O)Cc1csc(-c2cccc(Cl)c2)n1` it was -14%.
In the case of `CSC1=Nc2c(cnn2-c2cccc(Cl)c2)C2=NCCCN12`, the cytotoxicity at 70.5 h is -12%.
In the case of `Cn1c(=O)c2c(n3ncnc13)NC(=O)CC2c1ccc(F)cc1` (stereo unspecified) it was -11.1%; in that of `CSC1=Nc2c(cnn2-c2ccc(Cl)cc2)C2=NCCCN12`, -7.03%; in that of `COc1cccc(C2CC(=O)Nc3c2c(=O)n(C)c2ncnn32)c1` (stereo unspecified), 16.7%.
Take `Cn1c(=O)[nH]c(=O)n2c(CC(=O)Nc3c(Cl)cccc3Cl)cnc12`: the cytotoxicity at 70.5 h is -14.2%.
Take `NCCc1c(-c2ccc(F)cc2)[nH][nH]c1=O`: the cytotoxicity at 70.5 h was -3.38%.
For the compound `Cc1ccc(NC(=O)Cc2cnc3n(C)c(=O)[nH]c(=O)n23)cc1`, the cytotoxicity at 70.5 h was -8.62%.
Regarding `Cn1c(=O)[nH]c(=O)n2c(CC(=O)NCc3ccccc3)cnc12`, the cytotoxicity at 70.5 h was -12.3%.
In the case of `COC(=O)Cn1c(=O)nc2n1C(=O)N(c1ccc(C)cc1)C2` it was 13.2%; in that of `CC(C)n1[nH]c(=O)c2c1NC(=O)CC2c1cccc(Br)c1` (stereo unspecified), -12.9%; in that of `CC(C)(C)n1ncc2c1NC(=O)CC2c1cccc(O)c1` (stereo unspecified), -4.31%.
Consider `O=C(CSC1CCc2ccccc2NC1=O)NCc1cccs1` (stereo unspecified), for which the cytotoxicity at 70.5 h is -13.4%.
In the case of `O=C(CCSC1CCc2ccccc2NC1=O)NCCCO` (stereo unspecified) it was -12.2%.
As for `O=C(Cn1cc(-c2ccccc2)ncc1=O)Nc1ncc[nH]1`, the cytotoxicity at 70.5 h is -12.3%.
As to `COc1cccc(NC(=O)Cn2cc(-c3ccccc3)ncc2=O)c1`, the cytotoxicity at 70.5 h was -8.81%.
In the case of `CC(C)NC(=O)C(NC(=O)N1CCN(c2ccc(Cl)cc2)CC1)C(C)C` (stereo unspecified) it was -13.3%; in that of `O=C(NCc1ccc(F)cc1)C1CCCN(c2ccc3nncn3n2)C1` (stereo unspecified), 22%.
In the case of `CCCc1nnsc1C(=O)N1CCN(CC(O)c2ccco2)CC1` (stereo unspecified), the cytotoxicity at 70.5 h is -0.0412%.
For `COc1ccc(CNC(=O)N2CCN(CC(O)C3CC3)CC2)cc1` (stereo unspecified), the cytotoxicity at 70.5 h was -3%.
With `O=C(Nc1cccc(F)c1)C1=NOC2(CCNCC2)C1`, the cytotoxicity at 70.5 h was -4.38%.
In the case of `O=C(CN1CCN(CC(O)C2CC2)CC1)NCc1ccccc1Cl` (stereo unspecified) it was -10.5%.
As to `OC(CN1CCN(Cc2cccc(F)c2)CC1)C1CC1` (stereo unspecified), the cytotoxicity at 70.5 h is -11.3%.
Consider `OC(CN1CCN(Cc2cccnc2)CC1)c1cccs1` (stereo unspecified), for which the cytotoxicity at 70.5 h is -3.13%.
In the case of `CCO[C@@H]1C[C@H]2CN(S(=O)(=O)c3cccs3)CCN2C1` it was -4.39%.
For `O=C1COC2(CCN(c3ccccn3)CC2)CN1`, the cytotoxicity at 70.5 h was -19.6%.
In the case of `COc1ncnc2c1CCN(Cc1nccs1)CC2` it was -8.56%.
In the case of `O=C(C[C@@H]1COC[C@H]2CN(CC3CC3)C[C@@H]12)N1CCCCO1` it was 5.39%; in that of `Cc1ccnc(OC[C@@]23CCO[C@@H]2CCN(c2ncc(F)cn2)C3)n1`, -6.92%; in that of `Cc1cc(CN2C[C@H]3CCC[C@@]3(COCc3csc(C)n3)C2)no1`, -9.15%.
Regarding `Cc1nc(COC[C@@]23CCC[C@@H]2CN(CC2CCOCC2)C3)cs1`, the cytotoxicity at 70.5 h is -9.04%.
With `O=C(c1cocn1)N1CCC2(CC1)COC(COCc1ccccn1)C2` (stereo unspecified), the cytotoxicity at 70.5 h stood at 0.202%.
In the case of `c1ncn(Cc2cn3c(n2)CN(CC2CCCC2)CC3)n1` it was 1.84%; in that of `CN1CCS(=O)(=O)[C@@H]2CCN(C(=O)c3ccccc3)CC[C@@H]21`, -9.02%.
On to `CC(C)OCc1nn(C)c2c1CCN(Cc1ccco1)C2`, for which the cytotoxicity at 70.5 h is -7.18%.
As for `CCCS(=O)(=O)N1Cc2nccn2CC(CN2CCCC2)C1` (stereo unspecified), the cytotoxicity at 70.5 h was -4.76%.
For `COc1ccc(CC(=O)N2CC[C@@H]3[C@H](CC2)N(C)CCS3(=O)=O)cc1`, the cytotoxicity at 70.5 h was -8.6%.
In the case of `CN(C)C(=O)[C@H]1C[C@H]2OCC[C@H]2N(CCOc2ccc(Cl)cc2)C1` it was -3.17%; in that of `CC(C)n1nc(Cn2cccn2)c2c1CN(C1CCOCC1)C2`, -4.7%; in that of `CC(C)n1nc(Cn2cccn2)c2c1CN(C1CCOC1)C2` (stereo unspecified), -4.66%.
Regarding `CC(C)n1nc(Cn2cccn2)c2c1CN(CC1CCOC1)C2` (stereo unspecified), the cytotoxicity at 70.5 h was -4.31%.
In the case of `CC(C)n1nc(Cn2cccc2)c2c1CN(C1CCOCC1)C2` it was 0.409%.
In the case of `CN(C)[C@@H]1CCN(C(=O)C2CCOCC2)[C@H]1Cc1ccncc1` it was 6.4%.
In the case of `CN(C)C(=O)CN1CC[C@H]2[C@H]1CCN2c1ncccn1` it was -20.8%.
`CCN(C)c1ncnc2c1CCN(Cc1nccs1)CC2`: the cytotoxicity at 70.5 h was found to be 6.96%.
As to `Cc1ccc(CN2CCC3(CC2)CCN(Cc2ccoc2)CC3)cc1`, the cytotoxicity at 70.5 h is -5.46%.
For `Cc1ccc(CN2CCC3(CC2)CCN(Cc2ccco2)CC3)cc1`, the cytotoxicity at 70.5 h was -6.1%.
On to `CN1CCN(C[C@H]2OC[C@@H]3CCN(C(=O)c4cnccn4)C[C@@H]32)CC1`, for which the cytotoxicity at 70.5 h is -2.22%.
Take `CCOCC1CN(CCOc2ccc(Cl)cc2)Cc2c1cnn2C` (stereo unspecified): the cytotoxicity at 70.5 h turned out to be 2.89%.
In the case of `Cc1ccc(CN2C[C@H](N3CCOCC3)[C@@H]3OCCC[C@@H]32)o1`, the cytotoxicity at 70.5 h is -0.951%.
For `c1c(CN2CCCC2)nc2n1CCN(CC1CC1)C2`, the cytotoxicity at 70.5 h is -4.19%.
In the case of `Cc1cc(CN2C[C@H](N3CCOCC3)[C@@H]3OCCC[C@@H]32)oc1C` it was -7.89%; in that of `c1snnc1CN1C[C@H]2CCC[C@@H](CN3CCOCC3)[C@H]2C1`, -7.77%; in that of `CN(Cc1ccncc1)C1COC2(CCN(c3ncc(F)cn3)CC2)C1` (stereo unspecified), -1.66%.
In the case of `c1cnc(N2CC[C@@H]3CN(Cc4ccncc4)CCO[C@@H]3C2)nc1` it was -2.03%.
